Values of other authors in patent US20030139355A1, “Medicine for orthopaedic surgical application and a treating method using thereof” (priority 2001, published 2003).

How the values were obtained:
selectins = conditions: in vitro; J. Biol. Chem. 1994
[1] = system: ischemia reperfusion disorder in liver; conditions: literature reports

## CC1(C)[C@@H](O[C@H]2O[C@H](C(=O)O)[C@@H](O)[C@H](O)[C@H]2O[C@@H]2O[C@H](C(=O)O)[C@@H](O)[C@H](O)[C@H]2O)CC[C@]2(C)[C@H]3C(=O)C=C4[C@@H]5C[C@@](C)(C(=O)O)CC[C@]5(C)CC[C@@]4(C)[C@]3(C)CC[C@@H]12 [glycyrrhizin]
selectins
  Binding between Sialyl-Lewis X and selectins: prevents binding between Sialyl-Lewis X and selectins
[1]
  Inhibitory effects on ischemia reperfusion disorder in liver: effectively exhibits inhibitory effects
